Activity calls are given as the source filed them. No cut-off for these calls is given here.
Experiments:
RAW264.7 [1] = experiment: Antiinflammatory activity in mouse RAW264.7 cells assessed as reduction in LPS-induced NaNO2 release at 10 pM treated for 30 mins prior to LPS challenge measured after 24 hrs by griess reaction assay relative to budesonide; type: functional
[2] = system: Peritoneal macrophage cell; experiment: Antiinflammatory activity in C57bl/6 mouse peritoneal macrophages assessed as reduction in LPS-induced IL-6 production at >=10 pM treated for 30 mins prior to LPS challenge measured after 24 hrs by ELISA; type: functional, cell-based
RAW264.7 [3] = experiment: Antiinflammatory activity in mouse RAW264.7 cells assessed as reduction in LPS-induced NaNO2 release at 10 pM treated for 30 mins prior to LPS challenge measured after 24 hrs by griess reaction assay relative to melatonin; type: functional
[4] = system: Peritoneal macrophage cell; experiment: Antiinflammatory activity in C57bl/6 mouse peritoneal macrophages assessed as reduction in LPS-induced TNF-alpha production at >=1 pM treated for 30 mins prior to LPS challenge measured after 6 hrs by ELISA; type: functional, cell-based
Cholinesterase = Cholinesterase (Equus caballus, UniProt P81908); experiment: Inhibition of BuChE in equine serum using butylthiocholine iodide as substrate by Ellman's method
Sequence of Cholinesterase (P81908 whole entry): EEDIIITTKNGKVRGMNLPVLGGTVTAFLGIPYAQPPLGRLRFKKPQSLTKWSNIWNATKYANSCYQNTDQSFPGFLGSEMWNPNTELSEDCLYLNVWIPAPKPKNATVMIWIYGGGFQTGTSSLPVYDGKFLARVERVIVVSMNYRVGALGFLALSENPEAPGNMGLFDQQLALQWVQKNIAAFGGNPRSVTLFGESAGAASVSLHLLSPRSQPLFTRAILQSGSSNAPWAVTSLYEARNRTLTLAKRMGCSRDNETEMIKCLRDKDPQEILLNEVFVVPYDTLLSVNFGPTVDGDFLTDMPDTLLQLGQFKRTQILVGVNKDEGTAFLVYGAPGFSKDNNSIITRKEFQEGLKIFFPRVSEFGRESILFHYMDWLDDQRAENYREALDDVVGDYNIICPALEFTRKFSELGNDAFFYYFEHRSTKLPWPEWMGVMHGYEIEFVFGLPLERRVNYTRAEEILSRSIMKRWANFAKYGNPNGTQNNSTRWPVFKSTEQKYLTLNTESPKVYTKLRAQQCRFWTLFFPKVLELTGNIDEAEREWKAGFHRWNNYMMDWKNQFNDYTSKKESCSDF

RAW264.7 [5] = experiment: Antiinflammatory activity in mouse RAW264.7 cells assessed as reduction in LPS-induced NaNO2 release at >=10 pM treated for 30 mins prior to LPS challenge measured after 24 hrs by griess reaction assay; type: functional, cell-based
RAW264.7 [6] = experiment: Cytotoxicity against mouse RAW264.7 cells assessed as cell viability at 10 pM to 10 uM by MTT assay; type: cell-based
[7] = Cytotoxicity against C57bl/6 mouse peritoneal macrophages assessed as cell viability at 10 pM to 10 uM by MTT assay; type: cell-based; conditions: peritoneal macrophage cell
[8] = system: Peritoneal macrophage cell; experiment: Antiinflammatory activity in C57bl/6 mouse peritoneal macrophages assessed as reduction in LPS-induced TNF-alpha production at >=10 pM treated for 30 mins prior to LPS challenge measured after 6 hrs by ELISA; type: functional, cell-based
[9] = system: Peritoneal macrophage cell; experiment: Antiinflammatory activity in C57bl/6 mouse peritoneal macrophages assessed as reduction in LPS-induced IL-6 production at >=10 nM treated for 30 mins prior to LPS challenge measured after 24 hrs by ELISA; type: functional, cell-based
Acetylcholinesterase = molecular target: T1, Acetylcholinesterase (Bos taurus, UniProt P23795); experiment: Inhibition of AChE in bovine erythrocytes using acetylthiocholine iodide as substrate by Ellman's method
T1 sequence (P23795 whole entry): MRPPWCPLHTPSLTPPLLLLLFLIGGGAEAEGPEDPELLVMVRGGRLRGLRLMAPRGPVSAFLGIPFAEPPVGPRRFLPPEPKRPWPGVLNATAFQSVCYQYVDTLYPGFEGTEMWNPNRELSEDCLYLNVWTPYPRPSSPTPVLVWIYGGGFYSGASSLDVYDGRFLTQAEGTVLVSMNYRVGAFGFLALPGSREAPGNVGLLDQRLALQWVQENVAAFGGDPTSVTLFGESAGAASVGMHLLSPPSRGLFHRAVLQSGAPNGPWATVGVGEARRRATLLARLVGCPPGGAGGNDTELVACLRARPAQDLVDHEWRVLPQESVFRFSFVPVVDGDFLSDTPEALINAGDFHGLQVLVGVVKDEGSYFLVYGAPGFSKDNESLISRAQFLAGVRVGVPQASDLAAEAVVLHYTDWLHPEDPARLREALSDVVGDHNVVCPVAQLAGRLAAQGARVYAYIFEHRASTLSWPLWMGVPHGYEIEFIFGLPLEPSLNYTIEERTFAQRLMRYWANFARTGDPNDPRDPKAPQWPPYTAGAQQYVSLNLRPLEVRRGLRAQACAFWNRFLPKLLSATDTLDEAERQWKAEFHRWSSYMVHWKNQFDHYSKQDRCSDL

[10] = system: Peritoneal macrophage cell; experiment: Antiinflammatory activity in C57bl/6 mouse peritoneal macrophages assessed as reduction in LPS-induced TNF-alpha production at >=10 nM treated for 30 mins prior to LPS challenge measured after 6 hrs by ELISA; type: functional, cell-based
Mus musculus [11] = species: Mus musculus; experiment: Inhibition of ERK phosphorylation in LPS-activated C57bl/6 mouse peritoneal macrophages at 0.1 nM treated for 30 mins prior to LPS challenge by immunoblot analysis
[12] = molecular target: T2, Inhibitor of nuclear factor kappa-B kinase subunit alpha (Mus musculus) (UniProt Q60680); experiment: Inhibition of IkappaB alpha degradation in LPS-activated C57bl/6 mouse peritoneal macrophages at 0.1 nM treated for 30 mins prior to LPS challenge by immunoblot analysis
T2 sequence (whole entry): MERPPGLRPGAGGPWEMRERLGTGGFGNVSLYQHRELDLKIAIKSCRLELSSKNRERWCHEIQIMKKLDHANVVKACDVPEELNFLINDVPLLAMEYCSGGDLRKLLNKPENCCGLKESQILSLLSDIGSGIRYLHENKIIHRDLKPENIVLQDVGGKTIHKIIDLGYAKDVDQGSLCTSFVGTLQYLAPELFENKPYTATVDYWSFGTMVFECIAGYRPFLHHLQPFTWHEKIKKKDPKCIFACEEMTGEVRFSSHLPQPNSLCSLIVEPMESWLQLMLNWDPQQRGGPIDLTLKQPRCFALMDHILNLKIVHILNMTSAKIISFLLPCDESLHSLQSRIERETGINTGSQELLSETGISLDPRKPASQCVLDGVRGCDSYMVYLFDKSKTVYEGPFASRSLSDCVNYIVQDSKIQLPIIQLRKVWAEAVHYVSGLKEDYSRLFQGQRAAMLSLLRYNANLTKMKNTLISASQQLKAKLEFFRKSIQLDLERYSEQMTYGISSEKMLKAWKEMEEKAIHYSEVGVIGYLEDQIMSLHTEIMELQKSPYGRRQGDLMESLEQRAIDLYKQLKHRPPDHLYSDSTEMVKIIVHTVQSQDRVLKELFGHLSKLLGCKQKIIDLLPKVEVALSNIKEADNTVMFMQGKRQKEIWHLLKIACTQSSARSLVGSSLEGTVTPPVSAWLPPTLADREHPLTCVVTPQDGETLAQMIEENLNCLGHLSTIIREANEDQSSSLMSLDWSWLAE

Mus musculus [13] = species: Mus musculus; experiment: Inhibition of JNK phosphorylation in LPS-activated C57bl/6 mouse peritoneal macrophages at 0.1 nM treated for 30 mins prior to LPS challenge by immunoblot analysis
[14] = molecular target: MAP kinase p38 (Mus musculus) (UniProt P47811+O08911+Q9WUI1+Q9Z1B7); experiment: Inhibition of p38 phosphorylation in LPS-activated C57bl/6 mouse peritoneal macrophages at 0.1 nM treated for 30 mins prior to LPS challenge by immunoblot analysis
[15] = system: Peritoneal macrophage cell; experiment: Antiinflammatory activity in C57bl/6 mouse peritoneal macrophages assessed as reduction in LPS-induced IL-6 production at >=1 nM treated for 30 mins prior to LPS challenge measured after 24 hrs by ELISA; type: functional, cell-based
[16] = system: Peritoneal macrophage cell; experiment: Antiinflammatory activity in C57bl/6 mouse peritoneal macrophages assessed as reduction in LPS-induced TNF-alpha production at >=1 uM treated for 30 mins prior to LPS challenge measured after 6 hrs by ELISA; type: functional, cell-based
RAW264.7 [17] = experiment: Antiinflammatory activity in mouse RAW264.7 cells assessed as reduction in LPS-induced NaNO2 release at 1 nM treated for 30 mins prior to LPS challenge measured after 24 hrs by griess reaction assay relative to melatonin; type: functional
RAW264.7 [18] = experiment: Antiinflammatory activity in mouse RAW264.7 cells assessed as reduction in LPS-induced NaNO2 release at 1 nM treated for 30 mins prior to LPS challenge measured after 24 hrs by griess reaction assay relative to budesonide; type: functional
RAW264.7 [19] = experiment: Antiinflammatory activity in mouse RAW264.7 cells assessed as reduction in LPS-induced NaNO2 release at >=1 nM treated for 30 mins prior to LPS challenge measured after 24 hrs by griess reaction assay; type: functional, cell-based

Row | Structure (SMILES) | fold change (FC) (RAW264.7 [1]) | inhibition [2] | fold change (FC) (RAW264.7 [3]) | inhibition [4] | IC50 (Cholinesterase) [nM] | inhibition (RAW264.7 [5]) | Activity (RAW264.7 [6]) | Activity [7] | inhibition [8] | inhibition [9] | IC50 (Acetylcholinesterase) [nM] | fold change (FC) (RAW264.7 [17]) | fold change (FC) (RAW264.7 [18]) | inhibition (RAW264.7 [19]) | other results
1 | CCN(C)C(=O)Oc1cccc2c1C(CCN)CN2.Cl.Cl (stereo not given) | 10 | Active | 100 | Active | 200 | Active | Non-toxic | Non-toxic | – | – | – | – | – | – | –
2 | CCN(C)C(=O)Oc1cccc2c1C(CCN(C)C)CN2.Cl (stereo not given) | 10 | – | 100 | – | 310 | Active | Non-toxic | Non-toxic | Active | Active | 1300 | – | – | – | –
3 | CCN(C)C(=O)Oc1cccc2c1CCN2CCC(=O)OC.Cl | 10 | – | 100 | – | 700 | Active | Non-toxic | Non-toxic | – | Active | – | – | – | – | inhibition [10]: Active
4 | CCN(C)C(=O)Oc1cccc2c1C(CCC(=O)OC)CN2.Cl (stereo not given) | 10 | Active | 100 | Active | 300 | Active | Non-toxic | Non-toxic | – | – | – | – | – | – | inhibition (Mus musculus [11]): inactive; inhibition [12]: Active; inhibition (Mus musculus [13]): inactive; inhibition [14]: Active
5 | CCN(C)C(=O)Oc1ccc2c(c1)NCC2CCC(=O)OC.Cl (stereo not given) | 10 | – | 100 | Active | 3900 | Active | Non-toxic | Non-toxic | – | – | – | – | – | – | inhibition [15]: Active
6 | CCN(C)C(=O)Oc1ccc2c(c1)N(CCC(=O)OC)CC2.Cl | – | – | – | – | 6780 | – | Non-toxic | Non-toxic | – | Active | – | – | – | – | inhibition [16]: Active
7 | CCN(C)C(=O)Oc1ccc2c(c1)NCC2CCN(C)C.Cl (stereo not given) | – | – | – | – | 2200 | – | Non-toxic | Non-toxic | Active | Active | 21300 | 100 | 10 | Active | –
8 | CCN(C)C(=O)Oc1ccc2c(c1)NCC2CCCN.Cl (stereo not given) | – | Active | – | Active | 4700 | – | Non-toxic | Non-toxic | – | – | 36000 | 100 | 10 | Active | –
9 | CCN(C)C(=O)Oc1cccc2c1C(CCCN)CN2.Cl (stereo not given) | – | Active | – | Active | 1200 | – | Non-toxic | Non-toxic | – | – | 1800 | 100 | 10 | Active | –
10 | CCN(C)C(=O)Oc1ccc2c(c1)N(CCCN(C)C)CC2.Cl | – | – | – | – | 4270 | – | Non-toxic | Non-toxic | Active | Active | 48000 | 100 | 10 | Active | –
11 | CCN(C)C(=O)Oc1cccc2c1CCN2CCCN(C)C.Cl | – | – | – | – | 900 | – | Non-toxic | Non-toxic | Active | Active | 3700 | 100 | 10 | Active | –
